Values quoted from earlier work as cited in patent US20260020560A1, “AG[…] DIHYDROJASMONATE COMPOSITIONS” (priority 2022, published 2026).

SMILES	pKa at 25° C.
O=S(=O)(O)CC(O)CNC(CO)(CO)CO (centres unmarked) [TAPSO, 3-[N-tris(hydroxymethyl)methyl-amino]-2-hydroxypropanesulfonic acid]	7.635
O=S(=O)(O)CCN1CCN(CCO)CC1 [HEPES, 4-(2-hydroxyethyl)-1-piperazineethanesulfonic acid]	7.48
